Test results published in publication PMC8297402, “Trifluoromethyl-substituted 3,5-bis(arylidene)-4-piperidones as potential anti-hepatoma and anti-inflammation agents by inhibiting NF-кB activation” (Journal of Enzyme Inhibition and Medicinal Chemistry, 2021).
Read-outs that look alike come from different tables or passages of the source.

What was measured:
[1] = tested on: p-p65; assay: Western blot, LPS-stimulated phosphorylation of p65 in RAW264.7 cells; type: cell-based, mouse; details: RAW264.7, 1.0, 2.0, 4.0 μM, LPS 1.0 μg/mL 30 min
Description: (§1) Primary antibodies (anti-Bax, Abcam, ab32503; anti-Bcl-2, Abcam, ab194583; anti-Cleaved caspase-3, Abcam, ab2302; anti-p65, Cell Signalling Technology, 8242S; anti-p-p65, Cell Signalling Technology, 3033S; anti-IκBα, Cell Signalling Technoligy, 4812S; anti-p-IκBα, Cell Signalling Technology, 2859S; anti-p38, Cell Signalling Technology, 8690S; anti-p-p38, Cell Signalling Technology, 4511S; anti-JNK, Cell Signalling Technology, 9258 T; anti-p-JNK, Santa Cruz Biotechnology, sc-6254; anti-GAPDH, Abcam, ab181602), and goat anti-rabbit IgG/HRP secondary antibodies (Cell Signalling Technology, 98164 s) were purchased and used according to the manufacturer’s instructions. HepG2 cell lines were incubated with different doses of BAP 16 (1.0, 2.0, 4.0 μM) for 24 h (Bax, Cleaved caspase-3, Bcl-2). RAW264.7 cells were incubated with BAP 16 for 1 h, then treated with LPS (1.0 μg/mL) for 30 min. Afterward cell extraction was performed and extracts were used for Western blot analysis. Next, 30 μg protein of cell lysates were separated by 12% SDS-PAGE gel. The proteins were then transferred onto nitrocellulose membranes. […] By using Quantity One software (Bio-Rad), western blotting results were quantified from more than three separate experiments.

[2] = tested on: TNF-α; assay: ELISA of TNF-α release in LPS-stimulated RAW264.7 cells; type: cell-based, mouse; details: Mus musculus
Outline: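 RAW264.7 cells pretreated 2 h with compound at 5.0 μM (PDTC 30 μM as reference), then stimulated with LPS 1.0 μg/mL for a further 22 h. Secreted TNF-α and IL-6 in the culture media quantified by ELISA.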

[3] = tested on: Bcl-2; assay: Western blot, Bcl-2 expression in HepG2 cells; type: cell-based, Human; details: HepG2, 1.0, 2.0, 4.0 μM, 24 h
Description: as §1

[4] = Modified MTT cytotoxicity assay, normal heptical cell line HHL-5; details: human, HHL-5 cells (normal hepatic cell line)
Description: (§2) To further verify the anti-tumour activity, one human non-small cell lung cancer cell line (A549), one human ovarian cancer cell line (A2780), and one human normal heptical cell line (HHL-5) were screened by BAPs (4–30) using a modified MTT assay (Supporting Information). DOX and curcumin were selected as positive controls.
(§3) The optical density (OD) value of each well was measured on a
(§4) multi-well plate reader (TECAN, Mӓnnedorf, Switzerland ) at 570 nm.
(§5) Every IC 50 value was the average of three replicates.
(§6) Doxorubicin (DOX) and Curcumin were used as positive controls.

[5] = tested on: female ICR mice; assay: Acute toxicity study, 14 days intragastric administration; type: in vivo; details: for Liver tissue morphology, HE staining: intragastric
Description: Preliminary safety evaluation of BAP 16 […]
Acute Toxicity Studies: Animal experiments were reviewed and approved by the Binzhou Medical University Experimental Animal Committee. The acute toxicity study was investigated on the six-week-old female ICR mice (n = 30) weighing 18-22 grams (Jinan Pengyue Experimental Animal Breeding Co., Ltd.). Briefly, mice were randomly divided into three groups (n = 10/group) and administrated the BAP 16 or solvent. The three groups of mice were treated with intragastric administration of 300 mg/kg, 600 mg/kg of BAP 16 and vehicle (saline containing 0.5% CMC-Na) each day. The body weight of mice was recorded every day, and the toxicity and death of mice were monitored daily for up to day 14. On day 14, the surviving animals were dissected to observe whether the internal organs had visible tissue changes, and then the livers were taken for formaldehyde fixation, dehydration, embedding, sectioning, and HE staining. The cell images were taken using a light microscopy (Olympus, Tokyo, Japan).
During the 14 days of intragastric administration, the food and water intakes of all three groups […]
eosinophilic changes, and edema (Figure S1).
Figure S1. The morphology of the liver tissues after the photo by HE staining. (A) In the control group, the hepatic lobular cells were normal without edema and degeneration. (B) In the 300 mg/kg […]
nucleus stained deeper. […] (C) […]
smaller and the color of nucleus became deeper. There were obvious eosinophilic changes and […]
(1 picture or pasted object on this page, not shown here)

[6] = tested on: HepG2 cells; assay: Apoptosis assay, Annexin V-FITC/PI flow cytometry; type: cell-based, Human; details: 1.0 μM, 24 h
Description: HepG2 cells were selected and plated at a density of approximately 2 × 10^5 cells/well in a 12-well plate. After treatment with BAP 16 (1.0, 2.0, and 4.0 μM) and DMSO for 24 h, cells were harvested, washed twice with pre-chilled PBS, and suspended in 1 × binding buffer at a concentration of 1 × 10^5 cells/mL. According to the manufacturer’s instruction, 100 μL of such medium was then mixed with 5 μL of Annexin V-FITC and 5 μL of propidium iodide (BD Biosciences, San Jose, CA, USA). The mixture was vortexed gently, then incubated in the dark at room temperature for 15 min. Apoptosis analysis was measured by flow cytometry (BD FACS Calibur).

[7] = tested on: A2780; assay: Modified MTT cytotoxicity assay, A2780
Description: as §2, §3, §4, §5, §6

[8] = tested on: p-JNK; assay: Western blot, LPS-induced phosphorylation of JNK in RAW264.7 cells; type: cell-based, mouse; details: RAW264.7, 1.0, 2.0, 4.0 μM, LPS 1.0 μg/mL 30 min
Description: as §1

[9] = mice, intragastric, 300, 600 mg/kg/d, 14 days

O=C1C(=Cc2cccc(C(F)(F)F)c2)CN(S(=O)(=O)c2ccc(C(F)(F)F)cc2)CC1=Cc1cccc(C(F)(F)F)c1 [BAP 16]
Expression level of p-p65 [1]: significantly decreased in a dose-dependent manner | inhibition at 5 µM ([2]; RAW264.7, BAPs (5 μM) + LPS (1 μg/mL), RAW264.7, ELISA, read-out: Inhibition rate TNF-α): ~83.2% | inhibition at 5 µM ([2]; RAW264.7, average of TNF-α and IL-6, 5 μM + LPS, RAW264.7, read-out: Inhibition rates against IL-6 and TNF-α cytokine release, average): 81.2% | Expression of anti-apoptotic protein Bcl-2 [3]: decreased in a dose-dependent manner | IC50 [4]: 6.2 ± 0.4 µM | Overall toxicity conclusion ([5]; cell and acute toxicity studies together): low overall toxicity | Liver tissue morphology, HE staining ([5]; mice, 300 mg/kg group, day 14): some liver cells became smaller | Liver tissue morphology, HE staining ([5]; mice, 600 mg/kg group, day 14): the cytoplasm of mouse liver was dehydrated seriously | Body weight [5, 9]: increased slightly | Food and water intakes [5, 9]: normal | Toxic reaction observed during administration [5, 9]: no obvious toxic reaction was observed | Liver tissue changes, HE staining ([5]; mice, intragastric, 300, 600 mg/kg/d, day 14): dose-related toxic changes | Apoptosis of HepG2 cells [6]: 31.7% | IC50 ([7]; Homo sapiens, A2780, read-out: Cytotoxicity IC50 A2780, MTT, ovarian cancer cell line): 0.27 ± 0.02 µM | SI (selectivity index) A2780 ([7]; quotient of IC50 for normal (HHL-5) and malignant (A2780) cells): 23.0 | Expression level of p-JNK [8]: significantly decreased
